Results from ChEMBL document CHEMBL1201862, “PubChem BioAssay data set” (2004).
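Tested at 5 concentrations; 48 h exposure; 96-well plates; endpoints linearly interpolated, else capped at highest concentration. Abbreviation: GI50, concentration required for 50% inhibition of growth.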 Active and inactive are the calls of the source. No stated cut-off is given here; in the data, active = GI50 up to about 1.1 µM and inactive = higher.

Key:
Test in all cases: NCI tumour cell line growth inhibition, 48 h
786-0 = tested on: 786-0
A549 = tested on: A549
ACHN = tested on: ACHN
CAKI-1 = tested on: CAKI-1
CCRF-CEM = tested on: CCRF-CEM
COLO 205 = tested on: COLO 205
DLD-1 = tested on: DLD-1
DMS-114 = tested on: DMS-114
DMS-273 = tested on: DMS-273
EKVX = tested on: EKVX
HCC 2998 = tested on: HCC 2998
HCT-116 = tested on: HCT-116
HCT-15 = tested on: HCT-15
HL-60 = tested on: HL-60
HOP-62 = tested on: HOP-62
HOP-92 = tested on: HOP-92
HT-29 = tested on: HT-29
IGROV-1 = tested on: IGROV-1
K562 = tested on: K562
KM-20L2 = tested on: KM-20L2
KM12 = tested on: KM12
LOX IMVI = tested on: LOX IMVI
LXFL 529 = tested on: LXFL 529
MOLT-4 = tested on: MOLT-4
Malme-3M = tested on: Malme-3M
NCI-H226 = tested on: NCI-H226
NCI-H23 = tested on: NCI-H23
NCI-H460 = tested on: NCI-H460
NCI-H522 = tested on: NCI-H522
OVCAR-3 = tested on: OVCAR-3
OVCAR-5 = tested on: OVCAR-5
OVCAR-8 = tested on: OVCAR-8
RPMI-8226 = tested on: RPMI-8226
RXF 393 = tested on: RXF 393
RXF 631 = tested on: RXF 631
SF-268 = tested on: SF-268
SF-295 = tested on: SF-295
SF-539 = tested on: SF-539
SK-MEL-28 = tested on: SK-MEL-28
SK-MEL-2 = tested on: SK-MEL-2
SK-MEL-5 = tested on: SK-MEL-5
SK-OV-3 = tested on: SK-OV-3
SN12C = tested on: SN12C
SNB-19 = tested on: SNB-19
SR = tested on: SR
SW-620 = tested on: SW-620
TK-10 = tested on: TK-10
U-251 = tested on: U-251
UACC-257 = tested on: UACC-257
UACC-62 = tested on: UACC-62
A498 = tested on: A498
HOP-18 = tested on: HOP-18
M14 = tested on: M14
M19-MEL = tested on: M19-MEL
OVCAR-4 = tested on: OVCAR-4
SNB-75 = tested on: SNB-75
SNB-78 = tested on: SNB-78
UO-31 = tested on: UO-31
XF498 = tested on: XF498

Measured: GI50

O=C(c1cc2ccccc2[nH]1)C(O)(c1cc2ccccc2[nH]1)c1cc2ccccc2[nH]1
> 246 µM: HCT-15
inactive: 786-0 > 246 µM | A549 > 246 µM | ACHN > 246 µM | CAKI-1 > 246 µM | CCRF-CEM > 246 µM | COLO 205 > 246 µM | DLD-1 > 246 µM | DMS-114 > 246 µM | DMS-273 > 246 µM | EKVX > 246 µM | HCC 2998 > 246 µM | HCT-116 16.6 µM | HL-60 > 246 µM | HOP-62 > 246 µM | HOP-92 > 246 µM | HT-29 > 246 µM | IGROV-1 > 246 µM | K562 > 246 µM | KM-20L2 > 246 µM | KM12 > 246 µM | LOX IMVI > 246 µM | LXFL 529 > 246 µM | MOLT-4 > 246 µM | Malme-3M > 246 µM | NCI-H226 50.9 µM | NCI-H23 112 µM | NCI-H460 > 246 µM | NCI-H522 > 246 µM | OVCAR-3 20 µM | OVCAR-5 > 246 µM | OVCAR-8 > 246 µM | RPMI-8226 > 246 µM | RXF 393 > 246 µM | RXF 631 > 246 µM | SF-268 > 246 µM | SF-295 154 µM | SF-539 129 µM | SK-MEL-28 > 246 µM | SK-MEL-2 > 246 µM | SK-MEL-5 > 246 µM | SK-OV-3 > 246 µM | SN12C > 246 µM | SNB-19 > 246 µM | SR > 246 µM | SW-620 > 246 µM | TK-10 > 246 µM | U-251 > 246 µM | UACC-257 > 246 µM | UACC-62 > 246 µM

CC1CC(c2ccc(Cl)c(Cl)c2)=Nc2ccccc2S1 (configuration not stated)
> 100 µM: HCT-15
inactive: 786-0 > 100 µM | A498 > 100 µM | A549 > 100 µM | ACHN > 100 µM | CAKI-1 > 100 µM | CCRF-CEM 41.9 µM | COLO 205 > 100 µM | DLD-1 > 100 µM | DMS-114 > 100 µM | DMS-273 > 100 µM | EKVX > 100 µM | HCC 2998 > 100 µM | HCT-116 > 100 µM | HL-60 > 100 µM | HOP-18 > 100 µM | HOP-62 > 100 µM | HOP-92 > 100 µM | HT-29 > 100 µM | IGROV-1 > 100 µM | K562 > 100 µM | KM-20L2 > 100 µM | KM12 > 100 µM | LOX IMVI > 100 µM | LXFL 529 > 100 µM | M14 > 100 µM | M19-MEL > 100 µM | MOLT-4 > 100 µM | Malme-3M > 100 µM | NCI-H226 > 100 µM | NCI-H23 > 100 µM | NCI-H460 > 100 µM | NCI-H522 > 100 µM | OVCAR-3 44.5 µM | OVCAR-4 > 100 µM | OVCAR-5 > 100 µM | OVCAR-8 > 100 µM | RPMI-8226 > 100 µM | RXF 393 > 100 µM | SF-268 > 100 µM | SF-295 > 100 µM | SF-539 > 100 µM | SK-MEL-28 > 100 µM | SK-MEL-5 > 100 µM | SK-OV-3 > 100 µM | SN12C > 100 µM | SNB-19 > 100 µM | SNB-75 > 100 µM | SNB-78 > 100 µM | SR 46 µM | SW-620 > 100 µM | TK-10 > 100 µM | U-251 > 100 µM | UACC-257 > 100 µM | UACC-62 > 100 µM | UO-31 > 100 µM | XF498 > 100 µM
